Literature values as cited in patent US12458625B2, “Methods and compositions for soft anticholinergic esters” (Bodor Laboratories, Inc., priority 2015, dated 2025).

Details: solid oral form

C[N+]1(C)CCC(OC(=O)C(O)(c2ccccc2)C2CCCC2)C1 (stereo not drawn) [glycopyrrolate]
reducing drooling (children): effective in reducing drooling | dropped out of the study because of adverse effects to the medication (children, most with cerebral palsy): over 20% | children affected by adverse events (most with cerebral palsy): 69%
